Test results reported in publication PMC6268275, “Use of Spectroscopic, Zeta Potential and Molecular Dynamic Techniques to Study the Interaction between Human Holo-Transferrin and Two Antagonist Drugs: Comparison of Binary and Ternary Systems” (Molecules, 2012).
Where a name gives a salt, the structure may show the parent alone.

Target: T1, human holo-transferrin (hTf) (Homo sapiens, UniProt P02787)
T1 construct: gene TF; commercial holo (iron-loaded) glycoprotein, Sigma-Aldrich; mature full length, 679 residues, ~79 kDa, N-lobe and C-lobe, no tag stated
T1 sequence (P02787 20-698): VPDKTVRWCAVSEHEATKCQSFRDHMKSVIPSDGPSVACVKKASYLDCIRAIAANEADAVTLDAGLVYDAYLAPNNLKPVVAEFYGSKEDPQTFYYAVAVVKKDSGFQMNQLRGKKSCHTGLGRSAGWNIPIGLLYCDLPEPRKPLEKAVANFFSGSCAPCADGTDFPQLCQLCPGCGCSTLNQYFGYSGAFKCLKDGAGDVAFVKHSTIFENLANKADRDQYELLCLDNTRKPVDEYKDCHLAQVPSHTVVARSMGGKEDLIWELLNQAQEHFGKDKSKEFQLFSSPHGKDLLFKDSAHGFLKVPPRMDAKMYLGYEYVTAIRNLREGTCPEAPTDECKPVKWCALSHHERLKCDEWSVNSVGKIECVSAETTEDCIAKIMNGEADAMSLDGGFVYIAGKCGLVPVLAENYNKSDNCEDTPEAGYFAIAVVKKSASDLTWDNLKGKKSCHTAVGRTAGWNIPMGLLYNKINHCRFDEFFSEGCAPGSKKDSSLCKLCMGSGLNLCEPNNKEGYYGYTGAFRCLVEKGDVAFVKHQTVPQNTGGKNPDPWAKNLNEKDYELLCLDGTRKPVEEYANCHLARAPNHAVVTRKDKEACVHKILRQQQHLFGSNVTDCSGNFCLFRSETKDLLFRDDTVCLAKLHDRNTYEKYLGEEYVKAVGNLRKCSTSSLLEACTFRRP
Test: intrinsic fluorescence quenching titration
Format: binding
Conditions: double-log, excitation 280 nm, 50 mM potassium phosphate pH 7.4, 298 K
Text: intrinsic fluorescence quenching titration on human holo-transferrin (hTf)

Row | K b ( L mol^-1) / λ ex = 280 nM (stronger of two sites, binary system without aspirin) | SMILES | K b ( L mol^-1) / λ ex = 280 nM (one site, binary system without ropinirole)
1 |  | CC(=O)Oc1ccccc1C(=O)O [aspirin, 2-acetoxy benzoic acid] | (7.83 ± 0.02) × 10^3 L mol^-1
2 | (1.69 ± 0.03) × 10^6 L mol^-1 | CCCN(CCC)CCc1cccc2c1CC(=O)N2 [ropinirole hydrochloride, 4-[2-(dipropylamino)ethyl]-1,3-dihydro-2H-indol-2-one monohydro-chloride] | 
